In patent US11214803B2, “Modulators of YAP1 expression” (Ionis Pharmaceuticals, Inc., priority 2019, dated 2022):
Strand notation (5' to 3'): a small letter for the sugar, then the base; units joined by * are phosphorothioate-linked, units joined directly phosphodiester-linked; [ ] holds rarer units or linkages, { } end groups; capitals alone tell only the bases. k = constrained ethyl (cEt); [5mC] = 5-methylcytosine; d = 2'-deoxy (DNA)

test system: Yap1 mRNA; experiment: Antisense inhibition of human Yap1 in A-431 cells by cEt gapmers, single dose (Example 4, RTS4814); type: cell-based; conditions: Table 14; A-431 cells, 5,000 cells per well, free uptake, 2,000 nM, approximately 48 hours; RTS4814; normalized to RIBOGREEN; Yap1 mRNA relative to untreated control; * = targets amplicon region of primer probe set
How it was run: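 A-431 cells took up 3-10-3 cEt gapmers (16-mer, full phosphorothioate, 5-methylcytosines) by free uptake at 2,000 nM for about 48 h. Yap1 mRNA was quantified by qRT-PCR, normalized to total RNA (RIBOGREEN), and reported as % of untreated control.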

Substance	YAP1 (% UTC)
1074368 (antisense kG*kA*kT*dA*dG*dT*dA*dT*d[5mC]*dA*d[5mC]*d[5mC]*dT*kG*kT*kA) [Compound 1074368]	8 % UTC
1075392 (kG*kA*k[5mC]*dG*dG*dG*dT*dG*dA*dA*d[5mC]*d[5mC]*dT*kG*kT*kT; antisense) [Compound 1075392]	95 % UTC
1074208 (antisense kG*kT*kG*d[5mC]*dA*d[5mC]*dG*dA*dT*d[5mC]*dT*dG*dA*kT*kG*k[5mC]) [Compound 1074208]	96 % UTC
1074112 (kT*k[5mC]*k[5mC]*dA*dA*d[5mC]*dT*d[5mC]*d[5mC]*d[5mC]*dT*dT*dG*kA*k[5mC]*kG; antisense) [Compound 1074112]	83 % UTC
1075488 (antisense k[5mC]*kA*kG*dA*dA*dT*dA*dA*dG*dG*dG*dA*dG*kA*kT*k[5mC]) [Compound 1075488]	56 % UTC
1076480 (antisense kG*kT*kA*dA*dA*dT*dA*dT*d[5mC]*d[5mC]*dA*dT*dT*kA*k[5mC]*k[5mC]) [Compound 1076480]	72 % UTC
1075456 (antisense kT*kT*kA*d[5mC]*dG*dA*dA*dA*dT*dG*dT*dT*dT*kA*kG*kT) [Compound 1075456]	61 % UTC
1075648 (kT*k[5mC]*kA*dA*dT*dA*dA*dA*dG*dT*dG*dG*dG*kA*k[5mC]*kT; antisense) [Compound 1075648]	67 % UTC
1076000 (k[5mC]*k[5mC]*kT*dA*dA*dT*dA*dT*dG*dA*d[5mC]*dT*d[5mC]*k[5mC]*kT*kT; antisense) [Compound 1076000]	4 % UTC

same assay, conditions: Table 15; A-431 cells, 5,000 cells per well, free uptake, 2,000 nM, approximately 48 hours; RTS4814; normalized to RIBOGREEN; Yap1 mRNA relative to untreated control; * = targets amplicon region of primer probe set

Substance	YAP1 (% UTC)
1074369 (antisense kT*kG*kA*dT*dA*dG*dT*dA*dT*d[5mC]*dA*d[5mC]*d[5mC]*kT*kG*kT) [Compound 1074369]	19 % UTC
1076353 (kA*kT*kT*dA*dA*dA*d[5mC]*dA*dT*dT*d[5mC]*dG*dG*kA*kT*kT; antisense) [Compound 1076353]	30 % UTC
1075745 (k[5mC]*kT*kT*d[5mC]*dA*dA*dA*dA*dG*d[5mC]*dA*d[5mC]*dG*kG*kT*kG; antisense) [Compound 1075745]	58 % UTC
1074913 (antisense k[5mC]*kA*kT*d[5mC]*d[5mC]*d[5mC]*dG*dA*dG*dT*dG*dG*dG*k[5mC]*kT*kA) [Compound 1074913]	99 % UTC
1075617 (kT*kA*kA*dG*dA*dA*d[5mC]*dG*dA*d[5mC]*dA*dT*dA*kT*kG*k[5mC]; antisense) [Compound 1075617]	27 % UTC
1074945 (antisense k[5mC]*kA*kA*dA*dA*d[5mC]*d[5mC]*d[5mC]*dT*dT*dT*dG*dG*kT*k[5mC]*kT) [Compound 1074945]	74 % UTC
1075041 (antisense kG*kA*kT*dT*dA*dT*dA*dA*dA*dG*dA*dG*dG*k[5mC]*kT*k[5mC]) [Compound 1075041]	5 % UTC

same assay, conditions: Table 16; A-431 cells, 5,000 cells per well, free uptake, 2,000 nM, approximately 48 hours; RTS4814; normalized to RIBOGREEN; Yap1 mRNA relative to untreated control cells

Substance	YAP1 (% UTC)
1074946 (antisense k[5mC]*k[5mC]*kA*dA*dA*dA*d[5mC]*d[5mC]*d[5mC]*dT*dT*dT*dG*kG*kT*k[5mC]) [Compound 1074946]	109 % UTC
1074562 (antisense kG*kA*kA*dT*dT*d[5mC]*d[5mC]*dA*dA*dT*d[5mC]*dG*dA*kG*kA*k[5mC]) [Compound 1074562]	30 % UTC
1076290 (k[5mC]*kT*k[5mC]*d[5mC]*dA*dA*d[5mC]*dG*dG*dA*d[5mC]*dA*dA*k[5mC]*kT*kT; antisense) [Compound 1076290]	28 % UTC
1075970 (kG*k[5mC]*kT*dT*dA*dA*dA*dA*dG*dG*dA*d[5mC]*dA*kG*kT*kA; antisense) [Compound 1075970]	34 % UTC
1074370 (antisense kT*kT*kG*dA*dT*dA*dG*dT*dA*dT*d[5mC]*dA*d[5mC]*k[5mC]*kT*kG) [Compound 1074370]	8 % UTC
1074274 (antisense kG*kT*kT*d[5mC]*dT*dT*dA*dT*dG*dG*dT*dT*dT*kA*kT*kA) [Compound 1074274]	4 % UTC
1074402 (antisense kT*kT*kA*dT*dG*dG*dA*dA*dA*dT*dT*dT*d[5mC]*k[5mC]*kG*kG) [Compound 1074402]	25 % UTC
1074466 (kA*k[5mC]*k[5mC]*dG*dA*d[5mC]*d[5mC]*d[5mC]*dT*dG*d[5mC]*d[5mC]*dA*kA*kA*kA; antisense) [Compound 1074466]	32 % UTC

same assay, conditions: Table 17; A-431 cells, 5,000 cells per well, free uptake, 2,000 nM, approximately 48 hours; RTS4814; normalized to RIBOGREEN; Yap1 mRNA relative to untreated control cells

Substance	YAP1 (% UTC)
1076547 (antisense kG*kA*k[5mC]*d[5mC]*dA*dA*d[5mC]*d[5mC]*dT*d[5mC]*d[5mC]*d[5mC]*dT*k[5mC]*kA*kG) [Compound 1076547]	89 % UTC
1074851 (antisense kA*kT*kT*dG*dT*dT*dA*dT*dG*dA*dT*dA*dG*kG*k[5mC]*kA) [Compound 1074851]	6 % UTC
1076003 (kA*kA*kT*dT*dT*dA*dA*dT*dG*dG*d[5mC]*dT*dT*kG*k[5mC]*kA; antisense) [Compound 1076003]	8 % UTC
1075267 (antisense k[5mC]*kT*kA*dT*dT*dT*dA*dG*dA*dA*dT*dA*dA*kG*kT*kG) [Compound 1075267]	83 % UTC
1076035 (kG*kT*kA*dA*dT*dT*dA*dG*dA*dA*dA*d[5mC]*dT*kT*kG*kG; antisense) [Compound 1076035]	9 % UTC
1076067 (kG*k[5mC]*kA*dT*dA*dT*dA*dA*dG*dA*dT*dG*dT*kT*kT*kG; antisense) [Compound 1076067]	4 % UTC

same assay, conditions: Yap1 mRNA remaining as percent of untreated control; 3-10-3 cEt gapmers; A-431 cells; Table 36

Substance	YAP1 (% UTC)
1074518 (kA*kA*kA*dT*dG*d[5mC]*dA*dT*dA*d[5mC]*dA*dA*dA*kG*k[5mC]*kG; antisense) [compound 1074518]	13 % UTC
1074646 (antisense kA*kA*kA*dT*dT*dG*dA*dA*dG*dG*dG*d[5mC]*d[5mC]*kA*kA*kA) [compound 1074646]	39 % UTC
1074550 (DNA kA*kT*kA*dT*d[5mC]*dT*dA*d[5mC]*d[5mC]*dG*dT*dA*dT*kG*k[5mC]*k[5mC]; antisense) [compound 1074550]	23 % UTC
1075542 (kT*kG*kA*dG*dA*dA*dA*dG*dG*dT*dT*d[5mC]*d[5mC]*kT*kG*kA; antisense) [compound 1075542]	66 % UTC
1076182 (k[5mC]*kT*kA*dT*dA*dA*dT*dT*dA*dG*d[5mC]*d[5mC]*dA*kA*k[5mC]*k[5mC]; antisense) [compound 1076182]	15 % UTC
1075958 (k[5mC]*kA*kT*dT*dA*dT*dG*dA*d[5mC]*dA*dT*dT*d[5mC]*k[5mC]*k[5mC]*k[5mC]; antisense) [compound 1075958]	12 % UTC

same assay, conditions: Yap1 mRNA remaining as percent of untreated control; 3-10-3 cEt gapmers; A-431 cells; Table 37

Substance	YAP1 (% UTC)
1075863 (antisense k[5mC]*k[5mC]*kT*dA*dA*dT*dA*dA*d[5mC]*dT*dT*dG*dT*k[5mC]*kT*kA) [compound 1075863]	71 % UTC
1074935 (antisense kA*k[5mC]*kA*dG*dG*dA*dG*dA*d[5mC]*dT*dA*dT*dA*k[5mC]*kA*kA) [compound 1074935]	80 % UTC
1074807 (k[5mC]*k[5mC]*kA*dT*dA*dT*dA*dG*dA*dA*dG*dG*d[5mC]*kA*kT*kG; antisense) [compound 1074807]	75 % UTC
1075383 (antisense kA*kA*kT*dT*dA*dT*dT*dA*d[5mC]*d[5mC]*d[5mC]*dT*dA*k[5mC]*kT*k[5mC]) [compound 1075383]	45 % UTC
1075895 (antisense kA*k[5mC]*kT*d[5mC]*dG*dA*dA*dA*dG*d[5mC]*dT*dG*dG*kG*k[5mC]*k[5mC]) [compound 1075895]	38 % UTC
1075607 (antisense kA*kA*kA*dA*d[5mC]*dG*dG*dT*dG*dT*dG*dA*dA*kG*kA*kA) [compound 1075607]	45 % UTC
1075319 (antisense kT*kA*kT*dA*dA*d[5mC]*dA*dA*dT*d[5mC]*dA*dT*d[5mC]*k[5mC]*kT*kA) [compound 1075319]	59 % UTC
1076311 (kT*kA*kT*dA*dA*d[5mC]*d[5mC]*d[5mC]*dT*dA*dT*dA*d[5mC]*kT*kT*kG; antisense) [compound 1076311]	56 % UTC
1074839 (kT*kA*kT*dA*dA*d[5mC]*dA*dA*d[5mC]*dA*dT*dG*d[5mC]*kT*kT*kG; antisense) [compound 1074839]	33 % UTC
1074391 (kG*kT*k[5mC]*dA*dG*dA*dA*d[5mC]*dT*d[5mC]*dA*dA*dA*kG*k[5mC]*kT; antisense) [compound 1074391]	14 % UTC

same assay, conditions: table after Table 37, headed TABLE 32 (gapmers targeting SEQ ID NO.: 3); A-431 cells, free uptake, 2,000 nM, approximately 48 hours, RTS4814

Substance	YAP1 (% UTC)
1074884 (kG*kG*kG*d[5mC]*dT*dA*dA*d[5mC]*dT*d[5mC]*d[5mC]*dT*dG*k[5mC]*k[5mC]*kG; antisense) [compound 1074884]	110 % UTC
1074883 (kG*kG*k[5mC]*dT*dA*dA*d[5mC]*dT*d[5mC]*d[5mC]*dT*dG*d[5mC]*k[5mC]*kG*kA; antisense) [compound 1074883]	107 % UTC
